The supplement of paper PMC10949913

Columns and labels:
Settings in all cases: 48 h
[1] = system: CU-ACC1; assay: AC50 viability; higher = less potent
How it was run: (§1)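 Library compounds were dispensed at 11 concentrations (23 nL each) onto three adrenocortical carcinoma cell lines in 1,536-well plates. Luminescence was recorded after 48 h using CellTiter-Glo, and signals were normalised per plate to vehicle and empty-well controls. Fitted concentration-response curves of inhibitory or non-responding classes only supplied the AC50 and area under the curve.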

[2] = system: NCI-H295R; assay: area under concentration-response curve (viability) (AUC (a.u.)); higher = less active
How it was run: as §1

[3] = system: CU-ACC1; assay: as above
How it was run: as §1

[4] = system: NCI-H295R; assay: AC50 viability; higher = less potent
How it was run: as §1

[5] = system: CU-ACC2; assay: area under concentration-response curve (viability) (AUC (a.u.)); higher = less active
How it was run: as §1

SMILES	AC50 viability [1] [µM]	area under concentration-response curve [2]	area under concentration-response curve [3]	AC50 viability [4] [µM]	area under concentration-response curve [5]
CN1CC[C@H]([C@@H]1CO)C2=C3OC(=C/C(=O)C3=C(O)C=C2O)\C4=C(Cl)C=C(C=C4)C(F)(F)F	14.8	538	477		
N#CC1(c2cccc(C(=O)Nc3cc(Oc4ccc5nc(NC(=O)C6CC6)sc5n4)ccc3F)c2Cl)CC1	4.17		390		
N[C@@H]1C[C@H]1c1ccccc1	0.00186	353	341		
CC1=C(OC2=CC3=NC=N[N]3C=C2)C=CC(=C1)NC4=NC=NC5=C4C=C(N\C6=N\C(C)(C)CO6)C=C5	0.00296		402		
CCOC1=CC(=CC=C1C/2=N/[C@@](C)(C3=CC=C(Cl)C=C3)[C@](C)(N2C(=O)N4CCN(CC4)CC(=O)N5CCOCC5)C6=CC=C(Cl)C=C6)C(C)(C)C	16.3		440		
CC(C)[N]1C=C(C)C2=C1C=C(C=C2C(=O)NC\C3=C(C)\C=C(C)/NC3=O)C4=CC=C(N=C4)N5CCN(C)CC5	23.5		491		
CCCCCNC(=N)N/N=C/c1c[nH]c2ccc(OC)cc12	14.8		416		
CC(=O)N(O)CCCCCNC(=O)CCC(=O)N(O)CCCCCNC(=O)CCC(=O)N(O)CCCCCN	11.8	432	379		
OC1=CC=C(C=C1)C/2=C/C3=C(OC2)C=C(O)C=C3	18.6	471	436		
O=C1CSC(=O)N1C(CCc1ccncc1)COc1ccc(-c2cccc([N+](=O)[O-])c2)cc1 (stereo unspecified)	2.63	396	309		
COc1cccc2c1CCCC2CCCN1CCN(C2CCCCC2)CC1 (stereo unspecified)	16.6		501		
Cc1c(NC(=O)OCC2COCCN2)cn2ncnc(Nc3ccc4c(cnn4Cc4cccc(F)c4)c3)c12 (stereo unspecified)	23.5		433		
C[C@H](NC1=C2N=C[NH]C2=NC=N1)C/3=C/C4=C(C(=CC=C4)Cl)C(=O)N3C5=CC=CC=C5	20.9		447		
c1nc2c(NC3CCCCC3)nc(Nc3ccc(N4CCOCC4)cc3)nc2[nH]1	0.00118	274	283		
O=C1N\N=C(\CC2=CC=CC(=C2)C(=O)N3CCN(CC3)C4=NC=CC=C4C#N)C5=CC=CC=C15	18.6	548	450		
CN(C)CCCOc1ccc(-c2ccc3ncc4c(c3c2)n(C2CCOCC2)c(=O)n4C)cn1	11.5		487		
OCCOc1ccc(/C(=C(/CCCl)c2ccccc2)c2ccccc2)cc1	23.5		470		
CN(C)CCCN\C1=C\2C(=O)N(C)C(=O)\N=C2N(C)C3=C1C=CC=C3	18.6		501		
CCc1ccc(/C=C2/SC(=S)NC2=O)cc1	2.63	394	396		
O=C(NO)c1cnc(NC2(c3cccc(F)c3)CCCCC2)nc1	20.9	538	474		
COc1ccccc1N1CCN(CCN(C(=O)C2CCCCC2)c2ccccn2)CC1	20.9	378	351		
C[C@H](NC(=O)[C@@H](O)c1cc(F)cc(F)c1)C(=O)N[C@@H]1C(=O)N(C)c2ccccc2-c2ccccc21	26.3	424	381		
ClC1=C[NH]N=C1C\2NC(=N\C3=C2C(=O)CCC3)/NC4=NC5=CC=CC=C5O4 (stereo unspecified)	41.7		426		
Nc1ncnc(Nc2ccc(OCc3ccccc3)c(Cl)c2)c1/C=N/OCCN1CCOCC1	20.9		324		
Cc1cc(C)c(C/N=C(\O)c2cc(-c3ccc(N4CCN(C)CC4)nc3)cc3c2c(C)cn3C(C)C)c(O)n1	29.5		490		
CN(C)Cc1cccc(N/C(=C2\C(=O)Nc3cc(C(N)=O)ccc32)c2ccccc2)c1	23.5		420		
C[C@@H](Nc1cc(F)cc(F)c1)c1cc(C(=O)N(C)C)cc2c(=O)cc(N3CCOCC3)oc12	13.2		466		

SMILES	AC50 viability [1] [µM]	area under concentration-response curve [2]	area under concentration-response curve [3]	AC50 viability [4] [µM]	area under concentration-response curve [5]
Cc1nc2cc(C(=O)N3CCC4(CC3)CC(=O)c3c(cnn3C(C)C)C4)ccc2[nH]1	26.3	568	467		
N#Cc1ccc(COC[C@H]2O[C@@H](n3c(NCc4ccc(Cl)c(Cl)c4)nc4c(N)ncnc43)[C@H](O)[C@@H]2O)cc1	20.9	494	464		
O=C(O)CC[C@H]1CC[C@@](c2cc(F)ccc2F)([S+](=O)([O-])c2ccc(Cl)cc2)CC1	0.00105	255	359		
CC1=CC=CC=C1CN2C(=O)C/3=C(/CCN(CC4=CC=CC=C4)C3)N\5CC\N=C25	6.61		313		
C[C@](O)(COc1ccc(C#N)cc1)C(=O)Nc1ccc(C#N)c(C(F)(F)F)c1	0.00118	248	322		
CC(=O)O[C@@]1(CC[C@H]2[C@@H]3\C=C(Cl)/C4=C/C(=O)[C@@H]5C[C@@H]5[C@]4(C)[C@H]3CC[C@]12C)C(C)=O	2.35	304	325		
CCn1c(-c2nonc2N)nc2cncc(CNC3CCNCC3)c21	14.8	526	477		
CC(=O)N1CCN(CCOC2=CC=C(C=C2)C3CCN(CC3)/C4=N/[N]5C(=NN=C5C(F)(F)F)CC4)CC1	11.8		430		
O=C(O)[C@H](O)[C@@H](O)[C@H](O[C@@H]1O[C@H](CO)[C@H](O)[C@H](O)[C@H]1O)[C@H](O)CO	0.00118	307	342		
CCN(CC)CCCCNc1nc2cc(Cl)c(Cl)cc2nc1-c1ccc(-c2cccs2)s1	23.5		451		
Cc1cc2c(F)c(Oc3ncnn4cc(OC[C@@H](C)O)c(C)c34)ccc2[nH]1	0.00263	329	317		
CN(C)c1ccccc1CN1CCCN(Cc2ccccc2N(C)C)C1c1ccncc1	8.33	444	448		
O=C(/C=C/c1ccc(Cl)cc1)N1CCC2(CC1)CN(Cc1ccc(Cl)c(Cl)c1)C(=O)O2	20.9		432		
COC[C@H]1OC(=O)C2=COC3=C2[C@@]1(C)\C4=C(\[C@@H]5CC[C@H](O)[C@@]5(C)C[C@H]4OC(C)=O)C3=O	4.17		311		
O=C(N[C@H]1CCC[C@H](CO)C1)C1CCN(c2nc3cc(Cl)c(-c4ccc(Cl)cc4)cc3o2)CC1	20.9		484		
C[S+](=O)([O-])c1ccc(-c2cnc(NCc3ccco3)n3cnnc23)cc1	2.09		357		
COc1cc(C(N)=O)ccc1NC(=O)[C@@H]1N[C@@H](CC(C)(C)C)[C@@]2(C(=O)Nc3cc(Cl)ccc32)[C@H]1c1cccc(Cl)c1F		536	495	20.9	604
COc1ccc(-n2c(C)c([N+](=O)[O-])c3ccc(O)cc32)cc1		549	519	14.8	615
COC(=O)Nc1ccc(-c2nc(N3CCOCC3)c3cnn(C4CCN(Cc5cccnc5)CC4)c3n2)cc1		444	499	16.6	546
COc1c(C)c2c(c(O)c1C/C=C(\C)CCC(=O)O)C(=O)OC2		482	467	0.59	561
C[C@@]1(C(=O)Nc2ccc(F)nc2)CCCN1c1nc(Nc2cc(C3CC3)[nH]n2)c2cccn2n1		375	505	0.148	480
COc1cc([C@@H]2c3cc4c(cc3[C@@H](O[C@@H]3O[C@@H]5CO[C@@H](c6cccs6)O[C@H]5[C@H](O)[C@H]3O)[C@H]3COC(=O)[C@H]23)OCO4)cc(OC)c1O		532	509	11.8	608
CN(C)CCN1C(=O)c2cccc3cc(N)cc(c23)C1=O	26.3		452		
COC(=O)c1ccc([C@H]2c3[nH]c4ccccc4c3C[C@H](C(=O)OC)N2C(=O)CCl)cc1		356	385	0.263	360
COc1cc(N2CCC(N3CCN(C)CC3)CC2)ccc1Nc1ncnc(Nc2ccccc2[S+](=O)([O-])C(C)C)n1	0.00468		258		
CC(C)(C)C1=CC(=C(NC(=O)C/2=C/NC3=C(C=CC=C3)C2=O)C=C1O)C(C)(C)C		426	532	18.6	572
Oc1ccc([C@@H]2Oc3ccc(O)cc3[C@@H]3CCC[C@@H]32)cc1		500	485	13.2	535
